Test results as given in patent publication US20050004126A1 (priority 2001, published 2005).

target: MMP-13CD (catalytic domain of collagenase 3) (Homo sapiens, UniProt P45452); assay: biochemical
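Further: inhibition of enzymatic thiopeptolide substrate cleavage (100 µM) in pH 6.0 MES buffer with CaCl2 and DTNB, comparing hydrolysis with versus without inhibitor.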
Description: They measure the amount by which a test compound reduces the hydrolysis of a thiopeptolide substrate caused by a matrix metalloproteinase enzyme.
Thiopeptolide substrates show virtually no decomposition or hydrolysis in the absence of a matrix metalloproteinase enzyme. A typical thiopeptolide substrate commonly utilized for assays is Ac-Pro-Leu-Gly-thioester-Leu-Leu-Gly-OEt. A 100 μL assay mixture will contain 50 mM of 2-morpholinoethane sulfonic acid monohydrate (MES, pH 6.0) 10 mM CaCl2, 100 μM thiopeptolide substrate, and 1 mM 5,5′-dithio-bis-(2-nitro-benzoic acid) (DTNB). […] Assays are carried out with and without matrix metalloproteinase inhibitor compounds, and the amount of hydrolysis is compared for a determination of inhibitory activity of the test compounds.

Structure (SMILES)	IC50
Cn1c(=O)n(Cc2cccs2)c(=O)c2cc(C(=O)NCc3ccc4c(c3)OCO4)ccc21 [Synthesis Example 31, 1-Methyl-2,4-dioxo-3-(thien-2-ylmethyl)-1,2,3,4-tetrahydroquinazoline-6-carboxylic acid (benzo[1,3]dioxol-5-ylmethyl)amide]	9 nM
O=C(NCc1ccc2c(c1)OCO2)c1ccc2[nH]c(=O)n(Cc3ccc(Cl)cc3)c(=O)c2c1 [Synthesis Example 32, 3-(4-Chlorobenzyl)-2,4-dioxo-1,2,3,4-tetrahydroquinazoline-6-carboxylic acid (benzo[1,3]dioxol-5-ylmethyl)amide]	28 nM
Cn1c(=O)n(Cc2ccc(Cl)cc2)c(=O)c2cc(C(=O)NCc3ccc4c(c3)OCO4)ccc21 [Synthesis Example 33, 3-(4-Chlorobenzyl)-1-methyl-2,4-dioxo-1,2,3,4-tetrahydroquinazoline-6-carboxylic acid (benzo[1,3]dioxol-5-ylmethyl)amide]	9 nM
O=C(NCc1ccc2c(c1)OCO2)c1ccc2[nH]c(=O)n(Cc3ccc4c(c3)OCO4)c(=O)c2c1 [Synthesis Example 34, 3-(Benzo[1,3]dioxol-5-ylmethyl)-2,4-dioxo-1,2,3,4-tetrahydroquinazoline-6-carboxylic acid (benzo[1,3]dioxol-5-ylmethyl)amide]	17 nM
Cn1c(=O)n(Cc2ccc3c(c2)OCO3)c(=O)c2cc(C(=O)NCc3ccc4c(c3)OCO4)ccc21 [Synthesis Example 35, 3-(Benzo[1,3]dioxol-5-ylmethyl)-1-methyl-2,4-dioxo-1,2,3,4-tetrahydroquinazoline-6-carboxylic acid (benzo[1,3]dioxol-5-ylmethyl)amide]	3 nM
CCn1c(=O)n(Cc2ccccc2)c(=O)c2cc(C(=O)NCc3ccc4c(c3)OCO4)ccc21 [Synthesis Example 36, 3-Benzyl-1-ethyl-2,4-dioxo-1,2,3,4-tetrahydroquinazoline-6-carboxylic acid (benzo[1,3]dioxol-5-ylmethyl)amide]	26 nM
Cn1c(=O)[nH]c(=O)c2cc(C(=O)NCc3ccc4c(c3)OCO4)ccc21 [Synthesis Example 37, 1-Methyl-2,4-dioxo-1,2,3,4-tetrahydroquinazoline-6-carboxylic acid (benzo[1,3]dioxol-5-ylmethyl)amide]	920 nM
COC(=O)c1ccc(Cn2c(=O)c3cc(C(=O)NCc4ccc(OC)cc4)ccc3n(C)c2=O)cc1 [Synthesis Example 38, 4-[6-(4-Methoxy-benzylcarbamoyl)-1-methyl-2,4-dioxo-1,4-dihydro-2H-quinazolin-3-ylmethyl]-benzoic acid methyl ester]	4 nM
Cn1c(=O)n(C/C=C/c2ccccc2)c(=O)c2cc(C(=O)NCc3ccc4c(c3)OCO4)ccc21 [Synthesis Example 40, 1-Methyl-2,4-dioxo-3-((E)-3-phenylallyl)-1,2,3,4-tetrahydroquinazoline-6-carboxylic acid (benzo[1,3]dioxol-5-ylmethyl)amide]	22 nM
O=C(OCc1ccccc1)c1ccc2[nH]c(=O)n(Cc3ccccc3)c(=O)c2c1 [Synthesis Example 41, Benzyl 3-benzyl-2,4-dioxo-1,2,3,4-tetrahydroquinazoline-6-carboxylate]	29 nM
Cn1c(=O)n(Cc2ccccc2)c(=O)c2cc(C(=O)OCc3ccccc3)ccc21 [Synthesis Example 42, Benzyl 3-benzyl-1-methyl-2,4-dioxo-1,2,3,4-tetrahydroquinazoline-6-carboxylate]	31 nM
O=C(OCc1ccncc1)c1ccc2[nH]c(=O)n(Cc3ccccc3)c(=O)c2c1 [Synthesis Example 43, 4-Pyridylmethyl 3-benzyl-2,4-dioxo-1,2,3,4-tetrahydroquinazoline-6-carboxylate]	11 nM
Cn1c(=O)n(Cc2ccccc2)c(=O)c2cc(C(=O)OCc3ccncc3)ccc21 [Synthesis Example 44, 4-Pyridylmethyl 3-benzyl-1-methyl-2,4-dioxo-1,2,3,4-tetrahydroquinazoline-6-carboxylate]	4 nM
